Test results published in PMC12766724, “Synthesis, Anthelmintic Activity, and Mechanism of Action of 5‑Aryl‑1H‑indoles” (Journal of Agricultural and Food Chemistry, 2025).

These molecules were tested on Heterodera schachtii second-stage juveniles (J2) (assay: Motility on WMicrotracker ONE). Details: 10 µM group; initial (prior to the treatment).
Assay type: in vivo
Procedure, shortened: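 Second-stage juveniles of H. schachtii, reared on in vitro mustard roots on modified KNOP medium, were exposed to compounds in microtiter wells. Motility was scored as activity counts, i.e. interruptions of infrared microbeams passing through each well.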

First: FC(F)(F)Oc1ccc(-c2ccc3[nH]ccc3c2)cc1 [i-21]
Second: CCCOc1ccc(-c2ccc3[nH]ccc3c2)cc1 [i-13]
The average activity counts of the first is higher: 175 for the first, 166 for the second.

Same assay, conditions: 10 µM; 48 h

Compared with `FC(F)(F)Oc1ccc(-c2ccc3[nH]ccc3c2)cc1` [i-21], `CCCOc1ccc(-c2ccc3[nH]ccc3c2)cc1` [i-13] is lower in average activity counts: 170 for the first, 159 for the second.

Same assay, conditions: 10 µM; 72 h

First: FC(F)(F)Oc1ccc(-c2ccc3[nH]ccc3c2)cc1 [i-21]
Second: CCCOc1ccc(-c2ccc3[nH]ccc3c2)cc1 [i-13]
The average activity counts of the first is higher: 146 for the first, 141 for the second.

Same assay, conditions: 50 µM group; initial (prior to the treatment)

Going from `FC(F)(F)Oc1ccc(-c2ccc3[nH]ccc3c2)cc1` [i-21] to `CCCOc1ccc(-c2ccc3[nH]ccc3c2)cc1` [i-13], the average activity counts rises from 177 to 192.

Same assay, conditions: 50 µM; 48 h

First: FC(F)(F)Oc1ccc(-c2ccc3[nH]ccc3c2)cc1 [i-21]
Second: CCCOc1ccc(-c2ccc3[nH]ccc3c2)cc1 [i-13]
The average activity counts of the first is lower: 142 for the first, 183 for the second.

Same assay, conditions: 50 µM; 72 h

Going from `FC(F)(F)Oc1ccc(-c2ccc3[nH]ccc3c2)cc1` [i-21] to `CCCOc1ccc(-c2ccc3[nH]ccc3c2)cc1` [i-13], the average activity counts rises from 102 to 163.

Same assay, conditions: 100 µM group; initial (prior to the treatment)

First: FC(F)(F)Oc1ccc(-c2ccc3[nH]ccc3c2)cc1 [i-21]
Second: CCCOc1ccc(-c2ccc3[nH]ccc3c2)cc1 [i-13]
The average activity counts of the first is lower: 187 for the first, 192 for the second.

Same assay, conditions: 100 µM; 48 h

Compared with `FC(F)(F)Oc1ccc(-c2ccc3[nH]ccc3c2)cc1` [i-21], `CCCOc1ccc(-c2ccc3[nH]ccc3c2)cc1` [i-13] is lower in average activity counts: 150 for the first, 144 for the second.

Same assay, conditions: 100 µM; 72 h

Compared with `FC(F)(F)Oc1ccc(-c2ccc3[nH]ccc3c2)cc1` [i-21], `CCCOc1ccc(-c2ccc3[nH]ccc3c2)cc1` [i-13] is higher in average activity counts: 104 for the first, 150 for the second.

What follows are molecules tested on Arabidopsis thaliana Col-0 (assay: Germination rate and phytotoxicity). Details: 5 µM; 5 DPS.
Assay type: in vivo
Procedure, shortened: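 Sterilized Col-0 seeds sown on 1/2 MS with compounds at 5, 10, 50 and 100 μM in 0.3% DMSO (DMSO mock), grown under 16 h light/8 h dark at 22 °C/20 °C. Germination rate scored at day 5; primary root length and seedling weight after further 5 days.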

`FC(F)(F)Oc1ccc(-c2ccc3[nH]ccc3c2)cc1` [i-21] and `CCCOc1ccc(-c2ccc3[nH]ccc3c2)cc1` [i-13] are the same in “average fraction of germinated seeds” value: 0.98 for the first, 0.98 for the second.

Same assay, conditions: 5 µM; 10 DPS

Compared with `FC(F)(F)Oc1ccc(-c2ccc3[nH]ccc3c2)cc1` [i-21], `CCCOc1ccc(-c2ccc3[nH]ccc3c2)cc1` [i-13] is lower in main root length: 41.56 mm for the first, 40.24 mm for the second.

First: FC(F)(F)Oc1ccc(-c2ccc3[nH]ccc3c2)cc1 [i-21]
Second: CCCOc1ccc(-c2ccc3[nH]ccc3c2)cc1 [i-13]
The plant weight of the first is lower: 34.37 mg for the first, 37.8 mg for the second.

Same assay, conditions: 10 µM; 5 DPS

First: FC(F)(F)Oc1ccc(-c2ccc3[nH]ccc3c2)cc1 [i-21]
Second: CCCOc1ccc(-c2ccc3[nH]ccc3c2)cc1 [i-13]
The “average fraction of germinated seeds” value of the first is higher: 1.00 for the first, 0.93 for the second.

Same assay, conditions: 10 µM; 10 DPS

Going from `FC(F)(F)Oc1ccc(-c2ccc3[nH]ccc3c2)cc1` [i-21] to `CCCOc1ccc(-c2ccc3[nH]ccc3c2)cc1` [i-13], the main root length falls from 42.21 mm to 39.42 mm.

Compared with `FC(F)(F)Oc1ccc(-c2ccc3[nH]ccc3c2)cc1` [i-21], `CCCOc1ccc(-c2ccc3[nH]ccc3c2)cc1` [i-13] is higher in plant weight: 36.56 mg for the first, 36.95 mg for the second.

Same assay, conditions: 50 µM; 5 DPS

First: FC(F)(F)Oc1ccc(-c2ccc3[nH]ccc3c2)cc1 [i-21]
Second: CCCOc1ccc(-c2ccc3[nH]ccc3c2)cc1 [i-13]
The “average fraction of germinated seeds” value of the first is higher: 1.00 for the first, 0.91 for the second.

Same assay, conditions: 50 µM; 10 DPS

Compared with `FC(F)(F)Oc1ccc(-c2ccc3[nH]ccc3c2)cc1` [i-21], `CCCOc1ccc(-c2ccc3[nH]ccc3c2)cc1` [i-13] is higher in main root length: 35.82 mm for the first, 36.26 mm for the second.

First: FC(F)(F)Oc1ccc(-c2ccc3[nH]ccc3c2)cc1 [i-21]
Second: CCCOc1ccc(-c2ccc3[nH]ccc3c2)cc1 [i-13]
The plant weight of the first is lower: 24.65 mg for the first, 26.29 mg for the second.

Same assay, conditions: 100 µM; 5 DPS

For `FC(F)(F)Oc1ccc(-c2ccc3[nH]ccc3c2)cc1` [i-21], the “average fraction of germinated seeds” value was 0.96.

Same assay, conditions: 100 µM; 10 DPS

`FC(F)(F)Oc1ccc(-c2ccc3[nH]ccc3c2)cc1` [i-21] gave a main root length of 30.90 mm.

`FC(F)(F)Oc1ccc(-c2ccc3[nH]ccc3c2)cc1` [i-21] showed a plant weight of 21.97 mg.

Each molecule was assayed on human keratinocytes (HaCaT) (assay: Resazurin assay, 3-day treatment). Details: 10 µM.
Assay type: cell-based

`FC(F)(F)Oc1ccc(-c2ccc3[nH]ccc3c2)cc1` [i-21] and `CCCOc1ccc(-c2ccc3[nH]ccc3c2)cc1` [i-13] are within error of each other in “Average viability (signal intensity relative to control)” value: 0.96 ± 0.02 for the first, 0.97 ± 0.01 for the second.

Same assay, conditions: 20 µM

`FC(F)(F)Oc1ccc(-c2ccc3[nH]ccc3c2)cc1` [i-21] and `CCCOc1ccc(-c2ccc3[nH]ccc3c2)cc1` [i-13] are within error of each other in “Average viability (signal intensity relative to control)” value: 0.96 ± 0.04 for the first, 0.98 ± 0.02 for the second.

Same assay, conditions: 40 µM

Going from `FC(F)(F)Oc1ccc(-c2ccc3[nH]ccc3c2)cc1` [i-21] to `CCCOc1ccc(-c2ccc3[nH]ccc3c2)cc1` [i-13], the “Average viability (signal intensity relative to control)” value rises from 0.74 ± 0.11 to 0.91 ± 0.04.

These molecules were tested on C. elegans N2 wild-type (assay: Chitinase assay (reproductive capacity)). Details: Caenorhabditis elegans.
Assay type: in vivo, Caenorhabditis elegans
Procedure, shortened: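 Wild-type N2 L1 larvae were exposed to compounds for 4 days, then populations were examined microscopically and Chitinase activity, released at hatching, was measured as a read-out of reproduction. Failure from acute or reproductive toxicity or developmental defects is detected.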

`FC(F)(F)Oc1ccc(-c2ccc3[nH]ccc3c2)cc1` [i-21] and `CCCOc1ccc(-c2ccc3[nH]ccc3c2)cc1` [i-13] are within error of each other in IC50: 8.58 ± 0.99 µM for the first, 7.09 ± 0.72 µM for the second.

These molecules were tested on C. elegans CB3474 ben-1(e1880) III. (assay: Chitinase assay (reproductive capacity)). Details: Caenorhabditis elegans; mebendazole-resistant strain.
Assay type: in vivo
Description: (§1) C. elegans strains used in this study were N2 (wild-type), levamisole-resistant strains ZZ15 (lev-8(x15) X) and […] (lev-1(e211) IV), ivermectin-resistant strain DA1316 (avr-14(ad1305) I; avr-15(vu227) glc-1(pk54) V), mebendazole-resistant strain […] (ben-1(e1880) III), and three strains with mutations in succinate dehydrogenase, RP2699, RP2700, and RP2702. The worms were cultivated on Nematode Growth Medium agar plates seeded with Escherichia coli OP50 in 20 °C according to the standard cultivation protocols. Strains RP2699, RP2700, and RP2702 were generated by Prof. Peter Roy’s group. All other strains and bacteria were purchased from the Caenorhabditis Genetics Center (CGC, Minneapolis, MN).
(§2) The effect of compounds on C. elegans was evaluated using the Chitinase assay as we described previously.
(§3) Lastly, strain DA1316 has mutations in three genes encoding subunits of the glutamate-gated chloride channel and is highly resistant to avermectins.

`FC(F)(F)Oc1ccc(-c2ccc3[nH]ccc3c2)cc1` [i-21] and `CCCOc1ccc(-c2ccc3[nH]ccc3c2)cc1` [i-13] are within error of each other in IC50: 9.01 ± 0.78 µM for the first, 8.28 ± 0.99 µM for the second.

These molecules were tested on C. elegans ZZ15 lev-8(x15) X. (assay: Chitinase assay (reproductive capacity)). Details: Caenorhabditis elegans; levamisole-resistant strain.
Assay type: in vivo
Description: as §1, §2, §3

`FC(F)(F)Oc1ccc(-c2ccc3[nH]ccc3c2)cc1` [i-21] and `CCCOc1ccc(-c2ccc3[nH]ccc3c2)cc1` [i-13] are within 1.5-fold of each other in IC50: 10.6 ± 0.48 µM for the first, 7.63 ± 0.91 µM for the second.

What follows are molecules tested on C. elegans DA1316 avr-14(ad1305) I; avr-15(vu227) glc-1(pk54) V. (assay: Chitinase assay (reproductive capacity)). Details: Caenorhabditis elegans; ivermectin-resistant strain.
Assay type: in vivo
Description: as §1, §2, §3

`FC(F)(F)Oc1ccc(-c2ccc3[nH]ccc3c2)cc1` [i-21] and `CCCOc1ccc(-c2ccc3[nH]ccc3c2)cc1` [i-13] are within 1.5-fold of each other in IC50: 10.4 ± 0.41 µM for the first, 8.45 ± 1.36 µM for the second.

These molecules were tested on C. elegans CB211 lev-1(e211) IV. (assay: Chitinase assay (reproductive capacity)). Details: Caenorhabditis elegans; levamisole-resistant strain.
Assay type: in vivo
Description: as §1, §2, §3

`FC(F)(F)Oc1ccc(-c2ccc3[nH]ccc3c2)cc1` [i-21] and `CCCOc1ccc(-c2ccc3[nH]ccc3c2)cc1` [i-13] are within error of each other in IC50: 10.1 ± 0.39 µM for the first, 8.8 ± 1.21 µM for the second.
